According to PubChem BioAssay (NCI):
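Cells were grown in 96-well plates and exposed to each compound for 48 hours at five concentrations; endpoints were interpolated linearly between bracketing concentrations, or set to the highest concentration if not reached. GI50 marks 50% less growth. TGI: concentration producing complete growth inhibition.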

What was measured:
Assay in all cases: growth of human tumour cells (NCI), 48 h
[1] = test system: 786-0 renal
[2] = test system: A498 renal
[3] = test system: A549 NSCLC
[4] = test system: ACHN renal
[5] = test system: BT-549 breast
[6] = test system: CAKI-1 renal
[7] = test system: CCRF-CEM leukemia
[8] = test system: COLO 205 colon
[9] = test system: DU-145 prostate
[10] = test system: EKVX NSCLC
[11] = test system: HCC-2998 colon
[12] = test system: HCT-116 colon
[13] = test system: HCT-15 colon
[14] = test system: HL-60(TB) leukemia
[15] = test system: HOP-62 NSCLC
[16] = test system: HOP-92 NSCLC
[17] = test system: HS 578T breast
[18] = test system: HT29 colon
[19] = test system: IGROV1 ovarian
[20] = test system: K-562 leukemia
[21] = test system: KM12 colon
[22] = test system: LOX IMVI melanoma
[23] = test system: M14 melanoma
[24] = test system: MALME-3M melanoma
[25] = test system: MCF7 breast
[26] = test system: MDA-MB-231 breast
[27] = test system: MDA-MB-435
[28] = test system: MOLT-4 leukemia
[29] = test system: NCI-H226 lung
[30] = test system: NCI-H23 lung
[31] = test system: NCI-H460 lung
[32] = test system: NCI-H522 lung
[33] = test system: NCI/ADR-RES ovarian
[34] = test system: OVCAR-3 ovarian
[35] = test system: OVCAR-4 ovarian
[36] = test system: OVCAR-5 ovarian
[37] = test system: OVCAR-8 ovarian
[38] = test system: PC-3 prostate
[39] = test system: RPMI-8226 leukemia
[40] = test system: RXF 393 renal
[41] = test system: SF-268 CNS
[42] = test system: SF-295 CNS
[43] = test system: SF-539 CNS
[44] = test system: SK-MEL-2 melanoma
[45] = test system: SK-MEL-28 melanoma
[46] = test system: SK-MEL-5 melanoma
[47] = test system: SK-OV-3 ovarian
[48] = test system: SN12C renal
[49] = test system: SNB-19 CNS
[50] = test system: SNB-75 CNS
[51] = test system: SR leukemia
[52] = test system: SW-620 colon
[53] = test system: T-47D breast
[54] = test system: TK-10 renal
[55] = test system: U251 CNS
[56] = test system: UACC-257 melanoma
[57] = test system: UACC-62 melanoma
[58] = test system: UO-31 renal

Structure (SMILES): CS(=O)(=O)c1nccc(-c2c(-c3cccc(OCc4ccc(F)cc4)c3)nc3sccn23)n1
- GI50 [1]: 16.8 µM
- TGI [1]: > 100 µM
- GI50 [2]: 18.2 µM
- TGI [2]: 65.2 µM
- GI50 [3]: > 81.8 µM
- TGI [3]: > 100 µM
- GI50 [4]: 50.1 µM
- TGI [4]: > 100 µM
- GI50 [5]: 8.89 µM
- TGI [5]: > 100 µM
- GI50 [6]: 3.41 µM
- TGI [6]: > 100 µM
- GI50 [7]: 8.73 µM
- TGI [7]: > 100 µM
- GI50 [8]: 45 µM
- TGI [8]: > 100 µM
- GI50 [9]: 1.92 µM
- TGI [9]: 3.41 µM
- GI50 [10]: 26.4 µM
- TGI [10]: > 100 µM
- GI50 [11]: 2.28 µM
- TGI [11]: 5.54 µM
- GI50 [12]: 5.65 µM
- TGI [12]: > 100 µM
- GI50 [13]: 10.9 µM
- TGI [13]: > 100 µM
- GI50 [14]: 3.43 µM
- TGI [14]: > 29.3 µM
- GI50 [15]: 57.2 µM
- TGI [15]: > 100 µM
- GI50 [16]: 11.1 µM
- TGI [16]: > 100 µM
- GI50 [17]: 14.3 µM
- TGI [17]: > 100 µM
- GI50 [18]: 53.9 µM
- TGI [18]: > 100 µM
- GI50 [19]: 11.2 µM
- TGI [19]: > 100 µM
- GI50 [20]: 6.67 µM
- TGI [20]: > 100 µM
- GI50 [21]: 2.95 µM
- TGI [21]: 7.61 µM
- GI50 [22]: 4.7 µM
- TGI [22]: > 100 µM
- GI50 [23]: 25.9 µM
- TGI [23]: > 100 µM
- GI50 [24]: 67.3 µM
- TGI [24]: > 100 µM
- GI50 [25]: 8.31 µM
- TGI [25]: > 100 µM
- GI50 [26]: 34.3 µM
- TGI [26]: > 100 µM
- GI50 [27]: 30.3 µM
- TGI [27]: > 100 µM
- GI50 [28]: 2.64 µM
- TGI [28]: > 100 µM
- GI50 [29]: 21.6 µM
- TGI [29]: > 100 µM
- GI50 [30]: 11.7 µM
- TGI [30]: > 100 µM
- GI50 [31]: 56.7 µM
- TGI [31]: > 100 µM
- GI50 [32]: 8.15 µM
- TGI [32]: > 100 µM
- GI50 [33]: 43.2 µM
- TGI [33]: > 100 µM
- GI50 [34]: 19 µM
- TGI [34]: > 100 µM
- GI50 [35]: 11.4 µM
- TGI [35]: > 100 µM
- GI50 [36]: > 100 µM
- TGI [36]: > 100 µM
- GI50 [37]: 59.9 µM
- TGI [37]: > 100 µM
- GI50 [38]: 4.62 µM
- TGI [38]: > 28 µM
- GI50 [39]: 5.16 µM
- TGI [39]: > 51 µM
- GI50 [40]: 21.7 µM
- TGI [40]: > 100 µM
- GI50 [41]: 40.1 µM
- TGI [41]: > 100 µM
- GI50 [42]: > 100 µM
- TGI [42]: > 100 µM
- GI50 [43]: > 94 µM
- TGI [43]: > 100 µM
- GI50 [44]: > 100 µM
- TGI [44]: > 100 µM
- GI50 [45]: 23.8 µM
- TGI [45]: > 100 µM
- GI50 [46]: 2.51 µM
- TGI [46]: > 24.2 µM
- GI50 [47]: 47.4 µM
- TGI [47]: > 100 µM
- GI50 [48]: > 56.6 µM
- TGI [48]: > 100 µM
- GI50 [49]: 26 µM
- TGI [49]: > 96.7 µM
- GI50 [50]: > 39.5 µM
- TGI [50]: > 83.1 µM
- GI50 [51]: 5.45 µM
- TGI [51]: > 100 µM
- GI50 [52]: 5.32 µM
- TGI [52]: > 100 µM
- GI50 [53]: 9.52 µM
- TGI [53]: > 100 µM
- GI50 [54]: > 94.2 µM
- TGI [54]: > 100 µM
- GI50 [55]: 33.1 µM
- TGI [55]: > 100 µM
- GI50 [56]: 5 µM
- TGI [56]: 14.8 µM
- GI50 [57]: 17.5 µM
- TGI [57]: > 100 µM
- GI50 [58]: 2.19 µM
- TGI [58]: 5.57 µM
